Read-outs that look alike come from different tables or passages of the source.
Key:
Acinetobacter baumannii = assay: Expected efficacy of anti-bacterial agents against various bacteria (Tables 5 and 6); details: Gram: neg
[1] = tested on: Acinetobacter calcoaceticus; assay: as above; details: Gram: neg
Acinetobacter lwoffii = assay: as above; details: Gram: neg
Bartonella bacilliformis = assay: as above; details: Gram: neg
Bordetella pertussis = assay: as above; details: Gram: neg
Campylobacter jejuni = assay: Expected efficacy of anti-bacterial agents against various bacteria (Tables 5 and 6); details: Gram: neg
Citrobacter diversus = assay: as above; details: Gram: neg
Citrobacter freundii = assay: as above; details: Gram: neg
Enterobacter aerogenes = assay: as above; details: Gram: neg
Enterobacter cloacae = assay: as above; details: Gram: neg
Enterobacter sakazakii = assay: as above; details: Gram: neg
Escherichia coli = assay: as above; details: Gram: neg
Haemophilus ducreyi = assay: Expected efficacy of anti-bacterial agents against various bacteria (Tables 5 and 6); details: Gram: neg
Haemophilus influenzae = assay: as above; details: Gram: neg
[2] = tested on: Klebsiella (Calymmatobacterium) granulomatis; assay: as above; details: Gram: neg
Klebsiella oxytoca = assay: as above; details: Gram: neg
Klebsiella pneumoniae = assay: as above; details: Gram: neg
Moraxella catarrhalis = assay: Expected efficacy of anti-bacterial agents against various bacteria (Tables 5 and 6); details: Gram: neg
Morganella morganii = assay: as above; details: Gram: neg
Neisseria gonorrhoeae = assay: as above; details: Gram: neg
Neisseria meningitidis = assay: as above; details: Gram: neg
Proteus mirabilis = assay: as above; details: Gram: neg
Proteus vulgaris = assay: as above; details: Gram: neg
Providencia rettgeri = assay: as above; details: Gram: neg
Providencia stuartii = assay: as above; details: Gram: neg
Pseudomonas aeruginosa = assay: as above; details: Gram: neg
Pseudomonas fluorescens = assay: as above; details: Gram: neg
Salmonella typhi = assay: Expected efficacy of anti-bacterial agents against various bacteria (Tables 5 and 6); details: Gram: neg
Serratia marcescens = assay: as above; details: Gram: neg
Shigella boydii = assay: as above; details: Gram: neg
Shigella dysenteriae = assay: as above; details: Gram: neg
Shigella flexneri = assay: as above; details: Gram: neg
Shigella sonnei = assay: as above; details: Gram: neg
Vibrio cholerae = assay: as above; details: Gram: neg
Corynebacterium jeikeium = assay: Expected efficacy of anti-bacterial agents against various bacteria (Tables 5 and 6); details: Gram: pos
[3] = tested on: Corynebacterium urealyticum; assay: as above; details: Gram: pos
[4] = tested on: Methicillin resistant staph aureus (MRSA); assay: as above; details: Gram: pos
[5] = tested on: Staphylococcus aureus (MSSA); assay: as above; details: Gram: pos
Streptococcus pyogenes = assay: as above; details: Gram: pos
[6] = tested on: gram-positive staphylococci and streptococci; details: general background statement; cited from earlier work
Aspergillus fumigatus = assay: Expected efficacy of anti-fungal agents against various fungi (Table 4)
Blastomyces dermatitidis = assay: as above
Candida species = assay: as above
Coccidioides immitis = details: expected efficacy
Cryptococcus neoformans = assay: Expected efficacy of anti-fungal agents against various fungi (Table 4)
Bacteroides fragilis = assay: Expected efficacy of anti-bacterial agents against various bacteria (Tables 5 and 6); details: Gram: anaer
Clostridium difficile = assay: as above; details: Gram: anaer
Chlamydia pneumoniae = assay: as above; details: Gram: n/a
Chlamydia trachomatis = assay: Expected efficacy of anti-bacterial agents against various bacteria (Tables 5 and 6); details: Gram: n/a
Mycoplasma pneumoniae = assay: as above; details: Gram: n/a
[7] = tested on: Haemophilus parainfluenzae; assay: as above; details: Gram: neg
Diphtheroids = assay: as above; details: Gram: pos
Enterococcus faecalis = assay: as above; details: Gram: pos
Enterococcus faecium = assay: as above; details: Gram: pos
Peptostreptococcus = assay: as above; details: Gram: pos
[8] = tested on: Staphylococcus epidermidis; assay: as above; details: Gram: pos
Streptococcus agalactiae = assay: as above; details: Gram: pos
Streptococcus pneumoniae = assay: as above; details: Gram: pos
[9] = tested on: Viridans group streptococci; assay: as above; details: Gram: pos
Aspergillus niger = assay: Expected efficacy of anti-fungal agents against various fungi (Table 4)
Aspergillus terreus = assay: as above
Fusarium species = assay: as above

With C/C(=C\C(=O)OCCCCCCCCC(=O)O)C[C@@H]1OC[C@H](C[C@@H]2O[C@H]2[C@@H](C)[C@H](C)O)[C@@H](O)[C@H]1O [Bactroban, Mupirocin] the “Efficacy of various antibiotic agents” value (Clostridium perfringens; expected efficacy, Clostridium perfringens, Gram: anaer) was “no”, the “Efficacy of various antibiotic agents” value (Acinetobacter baumannii) was “no” and the “Efficacy of various antibiotic agents” value [1] was “no”. For the same compound, the “Efficacy of various antibiotic agents” value (Acinetobacter lwoffii) was “no”, the “Efficacy of various antibiotic agents” value (Bartonella bacilliformis) was “no” and the “Efficacy of various antibiotic agents” value (Bordetella pertussis) was “no”. The “Efficacy of various antibiotic agents” value (Brucella species; expected efficacy, Brucella species, Gram: neg) was “no”, the “Efficacy of various antibiotic agents” value (Campylobacter jejuni) was “no” and the “Efficacy of various antibiotic agents” value (Citrobacter diversus) was “no”. For the same compound, the “Efficacy of various antibiotic agents” value (Citrobacter freundii) was “no”, the “Efficacy of various antibiotic agents” value (Enterobacter aerogenes) was “no” and the “Efficacy of various antibiotic agents” value (Enterobacter cloacae) was “no”. For the same compound, the “Efficacy of various antibiotic agents” value (Enterobacter sakazakii) was “no”, the “Efficacy of various antibiotic agents” value (Escherichia coli) was “no” and the “Efficacy of various antibiotic agents” value (Francisella tularensis; expected efficacy, Francisella tularensis, Gram: neg) was “no”. The “Efficacy of various antibiotic agents” value (Haemophilus ducreyi) was “no”, the “Efficacy of various antibiotic agents” value (Haemophilus influenzae) was “no” and the “Efficacy of various antibiotic agents” value [2] was “no”. The “Efficacy of various antibiotic agents” value (Klebsiella oxytoca) was “no”, the “Efficacy of various antibiotic agents” value (Klebsiella pneumoniae) was “no” and the “Efficacy of various antibiotic agents” value (Legionella pneumophila; expected efficacy, Legionella pneumophila, Gram: neg) was “no”. For the same compound, the “Efficacy of various antibiotic agents” value (Moraxella catarrhalis) was “no”, the “Efficacy of various antibiotic agents” value (Morganella morganii) was “no” and the “Efficacy of various antibiotic agents” value (Neisseria gonorrhoeae) was “no”. The “Efficacy of various antibiotic agents” value (Neisseria meningitidis) was “no”, the “Efficacy of various antibiotic agents” value (Proteus mirabilis) was “no” and the “Efficacy of various antibiotic agents” value (Proteus vulgaris) was “no”. The “Efficacy of various antibiotic agents” value (Providencia rettgeri) was “no”, the “Efficacy of various antibiotic agents” value (Providencia stuartii) was “no” and the “Efficacy of various antibiotic agents” value (Pseudomonas aeruginosa) was “no”. The “Efficacy of various antibiotic agents” value (Pseudomonas fluorescens) was “no”, the “Efficacy of various antibiotic agents” value (Rickettsiae; expected efficacy, Rickettsiae, Gram: neg) was “no” and the “Efficacy of various antibiotic agents” value (Salmonella typhi) was “no”. For the same compound, the “Efficacy of various antibiotic agents” value (Serratia marcescens) was “no”, the “Efficacy of various antibiotic agents” value (Shigella boydii) was “no” and the “Efficacy of various antibiotic agents” value (Shigella dysenteriae) was “no”. For the same compound, the “Efficacy of various antibiotic agents” value (Shigella flexneri) was “no”, the “Efficacy of various antibiotic agents” value (Shigella sonnei) was “no” and the “Efficacy of various antibiotic agents” value (Vibrio cholerae) was “no”. The “Efficacy of various antibiotic agents” value (Yersinia pestis; expected efficacy, Yersinia pestis, Gram: neg) was “no”, the “Efficacy of various antibiotic agents” value (Corynebacterium jeikeium) was “no” and the “Efficacy of various antibiotic agents” value [3] was “no”. The “Efficacy of various antibiotic agents” value [4] was “yes”, the “Efficacy of various antibiotic agents” value [5] was “yes” and the “Efficacy of various antibiotic agents” value (Streptococcus pyogenes) was “yes”. For the same compound, the “activity against gram-positive staphylococci and streptococci” value [6] was “excellent activity”.
In the case of OC(Cn1cncn1)(Cn1cncn1)c1ccc(F)cc1F [Fluconazole], the “Efficacy of various antifungal agents” value (Aspergillus fumigatus) was “yes”, the “Efficacy of various antifungal agents” value (Blastomyces dermatitidis) was “yes” and the “Efficacy of various antifungal agents” value (Candida species) was “yes”. The “Efficacy of various antifungal agents” value (Coccidioides immitis) was “yes” and the “Efficacy of various antifungal agents” value (Cryptococcus neoformans) was “yes”.
In the case of CN[C@H](CC(C)C)C(=O)N[C@H]1C(=O)N[C@@H](CC(N)=O)C(=O)N[C@H]2C(=O)N[C@H]3C(=O)N[C@H](C(=O)N[C@H](C(=O)O)c4cc(O)cc(O)c4-c4cc3ccc4O)[C@H](O)c3ccc(c(Cl)c3)Oc3cc2cc(c3O[C@@H]2O[C@H](CO)[C@@H](O)[C@H](O)[C@H]2O[C@H]2C[C@](C)(N)[C@H](O)[C@H](C)O2)Oc2ccc(cc2Cl)[C@H]1O [Vancomycin], the “Efficacy of various antibiotic agents” value (Bacteroides fragilis) was “no”, the “Efficacy of various antibiotic agents” value (Clostridium difficile) was “yes” and the “Efficacy of various antibiotic agents” value (Clostridium perfringens) was “no”. The “Efficacy of various antibiotic agents” value (Chlamydia pneumoniae) was “no”, the “Efficacy of various antibiotic agents” value (Chlamydia psittaci) was “no” and the “Efficacy of various antibiotic agents” value (Chlamydia trachomatis) was “no”. The “Efficacy of various antibiotic agents” value (Mycoplasma pneumoniae) was “no”, the “Efficacy of various antibiotic agents” value (Acinetobacter baumannii) was “no” and the “Efficacy of various antibiotic agents” value [1] was “no”. The “Efficacy of various antibiotic agents” value (Acinetobacter lwoffii) was “no”, the “Efficacy of various antibiotic agents” value (Bartonella bacilliformis) was “no” and the “Efficacy of various antibiotic agents” value (Bordetella pertussis) was “no”. The “Efficacy of various antibiotic agents” value (Brucella species) was “no”, the “Efficacy of various antibiotic agents” value (Campylobacter jejuni) was “no” and the “Efficacy of various antibiotic agents” value (Citrobacter diversus) was “no”. For the same compound, the “Efficacy of various antibiotic agents” value (Citrobacter freundii) was “no”, the “Efficacy of various antibiotic agents” value (Enterobacter aerogenes) was “no” and the “Efficacy of various antibiotic agents” value (Enterobacter cloacae) was “no”. For the same compound, the “Efficacy of various antibiotic agents” value (Enterobacter sakazakii) was “no”, the “Efficacy of various antibiotic agents” value (Escherichia coli) was “no” and the “Efficacy of various antibiotic agents” value (Francisella tularensis) was “no”. For the same compound, the “Efficacy of various antibiotic agents” value (Haemophilus ducreyi) was “no”, the “Efficacy of various antibiotic agents” value (Haemophilus influenzae) was “no” and the “Efficacy of various antibiotic agents” value [7] was “no”. The “Efficacy of various antibiotic agents” value [2] was “no”, the “Efficacy of various antibiotic agents” value (Klebsiella oxytoca) was “no” and the “Efficacy of various antibiotic agents” value (Klebsiella pneumoniae) was “no”. For the same compound, the “Efficacy of various antibiotic agents” value (Legionella pneumophila) was “no”, the “Efficacy of various antibiotic agents” value (Moraxella catarrhalis) was “no” and the “Efficacy of various antibiotic agents” value (Morganella morganii) was “no”. For the same compound, the “Efficacy of various antibiotic agents” value (Neisseria gonorrhoeae) was “no”, the “Efficacy of various antibiotic agents” value (Neisseria meningitidis) was “no” and the “Efficacy of various antibiotic agents” value (Proteus mirabilis) was “no”. The “Efficacy of various antibiotic agents” value (Proteus vulgaris) was “no”, the “Efficacy of various antibiotic agents” value (Providencia rettgeri) was “no” and the “Efficacy of various antibiotic agents” value (Providencia stuartii) was “no”. For the same compound, the “Efficacy of various antibiotic agents” value (Pseudomonas aeruginosa) was “no”, the “Efficacy of various antibiotic agents” value (Pseudomonas fluorescens) was “no” and the “Efficacy of various antibiotic agents” value (Rickettsiae) was “no”. The “Efficacy of various antibiotic agents” value (Salmonella typhi) was “no”, the “Efficacy of various antibiotic agents” value (Serratia marcescens) was “no” and the “Efficacy of various antibiotic agents” value (Shigella boydii) was “no”. For the same compound, the “Efficacy of various antibiotic agents” value (Shigella dysenteriae) was “no”, the “Efficacy of various antibiotic agents” value (Shigella flexneri) was “no” and the “Efficacy of various antibiotic agents” value (Shigella sonnei) was “no”. For the same compound, the “Efficacy of various antibiotic agents” value (Vibrio cholerae) was “no”, the “Efficacy of various antibiotic agents” value (Yersinia pestis) was “no” and the “Efficacy of various antibiotic agents” value (Corynebacterium jeikeium) was “yes”. The “Efficacy of various antibiotic agents” value [3] was “yes”, the “Efficacy of various antibiotic agents” value (Diphtheroids) was “yes” and the “Efficacy of various antibiotic agents” value (Enterococcus faecalis) was “yes”. For the same compound, the “Efficacy of various antibiotic agents” value (Enterococcus faecium) was “yes, not VRE”, the “Efficacy of various antibiotic agents” value [4] was “yes” and the “Efficacy of various antibiotic agents” value (Peptostreptococcus) was “yes”. The “Efficacy of various antibiotic agents” value [5] was “yes”, the “Efficacy of various antibiotic agents” value [8] was “yes” and the “Efficacy of various antibiotic agents” value (Streptococcus agalactiae) was “yes”. The “Efficacy of various antibiotic agents” value (Streptococcus pneumoniae) was “yes”, the “Efficacy of various antibiotic agents” value (Streptococcus pyogenes) was “yes” and the “Efficacy of various antibiotic agents” value [9] was “yes”.
For C[C@@H](c1ncncc1F)[C@](O)(Cn1cncn1)c1ccc(F)cc1F [Voriconazole], the “Efficacy of various antifungal agents” value (Aspergillus fumigatus) was “yes”, the “Efficacy of various antifungal agents” value (Aspergillus niger) was “yes” and the “Efficacy of various antifungal agents” value (Aspergillus terreus) was “yes”. For the same compound, the “Efficacy of various antifungal agents” value (Candida species) was “yes” and the “Efficacy of various antifungal agents” value (Fusarium species) was “yes”.

From patent US20190255086A1, “Compositions and Methods for Treating an Infection” (CMPD Licensing, LLC, priority 2015, published 2019)
